Assay results reported in patent publication US10758513B2, “Modulators of mitochondrial protein import” (THE REGENTS OF THE UNIVERSITY OF CALIFORNIA, priority 2011, dated 2020).
In brackets after ≈: the same amount, converted by molar mass.

Assays:
[1] = target: Erv2 (Saccharomyces cerevisiae, UniProt Q12284); assay: In vitro Erv2 activity, Amplex Red-HRP assay; assay type: biochemical, yeast
[2] = tested on: Δpdr5Δsnq2 yeast strain; assay: Yeast growth inhibition (MIC50), Δpdr5Δsnq2 strain; assay type: cell-based; conditions: Saccharomyces cerevisiae, ethanol-glycerol media, 25° C., 40 hours
Protocol: For MIC50 analysis in the yeast strains, serial dilution of MitoBloCK-6 (0.5 μl) was pinned into assay plate wells containing 50 μl of yeast (Table 2) in rich ethanol-glycerol media (starting OD600=0.0002). Plates were then incubated at 25° C. in a humidified chamber for 40 hours. Each plate was shaken in a Beckman orbital shaker to resuspend settled cells, and the OD600 in each well was read by a Wallac Victor plate reader (Perkin Elmer).

[3] = tested on: HeLa cells; assay: MTT cell viability assay in HeLa cells (MitoBloCK-6); assay type: cell-based; conditions: 100 μM
Protocol: Measurements for cell viability were made with a MTT based toxicology assay kit (Sigma) as described previously (Hasson et al., 2010). Briefly, HeLa cells were grown in 24-well tissue culture dishes to 80% confluency. Cells were then treated with DMSO or MitoBloCK-6 in complete medium for 12 h and reacted with MTT solution supplement for additional 4 hr as described in manufacturer's protocols. Percentage viability of each cell sample was calculated as: [(absorbance of vehicle treated cells)−(absorbance of MitoBloCK-6 treated cells)/(absorbance of vehicle treated cells)]×100.

[4] = tested on: tim9-3 mutant; assay: Yeast growth inhibition (MIC50), tim9-3 mutant; assay type: cell-based; conditions: Saccharomyces cerevisiae; disrupted for prd5 and snq2
[5] = tested on: tim10-1 mutant overexpressing import components; assay: Yeast growth inhibition, tim10-1 mutant overexpressing import components; assay type: cell-based
Text: In general, a standard set of genetic and molecular techniques were used to generate the strains in this study (31, 32). Screening strains were generated based on previously characterized temperature sensitive mutants (see supplementary table 1). The snq1 and pdr5 deletions were introduced in each strain by strain mating with MDY326 or PCR-mediated deletion (33, 34). Overexpression strains were generated by transforming 2p yeast shuttle vectors carrying the gene of interest with the native promoter into the tim10-1 strain using a standard LiCl protocol (35). Transformed yeast was maintained on selective media appropriate for the plasmid's auxotrophic marker. Strains lacking mitochondrial DNA (rho null) were generated by two rounds of selection of the parent on YPD plates supplemented with ethidium bromide (40 μg/ml) followed by two rounds of single colony selection on YPD plates.
A primary screen was performed using freshly streaked tim10-1 diluted in YPD to an OD600 of approximately 0.0002 and kept on ice throughout the screening run. […] Each plate was shaken in a Beckman orbital shaker to resuspend settled cells, and the OD600 in each well was read by a Wallac Victor plate reader (Perkin Elmer). The top 600 growth inhibitory compounds were determined and assembled into two plates. […]

[6] = tested on: tim12-1 mutant mitochondria; assay: In vitro import of AAC into tim12-1 mutant mitochondria; assay type: biochemical, yeast
Protocol: Prior to import into purified mitochondria, ^35S-methionine and cysteine labeled proteins were generated with TNT Quick Coupled Transcription/Translation kits (Promega) and plasmids carrying the gene of interest. Transcription of genes was driven by either a T7 or SP6 promoter. Import reactions were conducted according to established methods. After frozen mitochondria aliquots were thawed and added to the import buffer at a final concentration of 100 μg/mL, drug or DMSO vehicle was added as indicated. A final vehicle concentration of 1% was used in all experiments. Following 15 minute incubation at 25° C., import reactions were initiated by the addition of […] of translation mix. Aliquots were removed at intervals during the reaction timecourse and import was terminated with either cold buffer, 25 μg/mL trypsin, or a combination of both. If trypsin was added to digest unimported precursor protein, soybean trypsin inhibitor (STI) was subsequently added in excess after 15 minute incubation on ice. After a final recovery of by centrifugation (8,000×g, 5 minutes), mitochondria were disrupted in Laemmli sample buffer. Imports of membrane proteins (AAC, PiC, Tom40, Tim22, and Tim23) included a carbonate extraction step to remove proteins that had not inserted into the membrane (Koehler C M, et al. (1998), Science 279:369-373). […]

Chain of Erv2 (Q12284 whole entry): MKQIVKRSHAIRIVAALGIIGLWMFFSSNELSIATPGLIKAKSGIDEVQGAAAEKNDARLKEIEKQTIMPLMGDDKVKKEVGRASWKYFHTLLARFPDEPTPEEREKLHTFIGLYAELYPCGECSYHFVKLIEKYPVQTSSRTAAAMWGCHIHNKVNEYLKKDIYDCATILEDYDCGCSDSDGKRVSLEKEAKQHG

Row | SMILES | IC50 [1] | MIC50 [2] | cell viability (MTT) [3] | MIC50 [4] | growth inhibition of tim10-1 mutant with overexpression of import components [5] | import of AAC into tim12-1 mutant mitochondria [6]
1 | Oc1c(Cl)cc(Cl)cc1/C=N/c1ccc(Nc2ccccc2)cc1 [MitoBloCK-6] | 1400 nM | 15.2 µM (≈ 5.43 µg/mL) | did not significantly reduce cell viability | – | – | –
2 | NC(=S)N/N=C/c1c(O)c(Br)cc2oc3c(c12)CCCC3 [MitoBloCK-1] | – | – | – | 11 µM (≈ 4.05 µg/mL) | did not alter the ability of MitoBloCK-1 to inhibit growth | did not inhibit the import of AAC
